Measurements: publication PMC12077191, “Aeromonas hydrophila RTX adhesin has three ligand-binding domains that give the bacterium the potential to adhere to and aggregate a wide variety of cell types” (mBio, 2025)

Experiments:
[1] = molecular target: T1, AhLap RTX adhesin, carbohydrate-binding module (AhLapCBM3) (Aeromonas hydrophila, UniProt A0KNW4); test: isothermal titration calorimetry at […] °C; […] also blocks binding to cells; design: gene AHA_3491; AhLapCBM3, three-domain construct Asn3455 to Gly3940 (extender domain, split domain and CBM), His-tagged
[2] = molecular target: T1, AhLap RTX adhesin, carbohydrate-binding module (AhLapCBM3); test: isothermal titration calorimetry at […] °C; also glycan array; design: gene AHA_3491; AhLapCBM3, three-domain construct Asn3455 to Gly3940 (extender domain, split domain and CBM), His-tagged
[3] = molecular target: T1, AhLap RTX adhesin, carbohydrate-binding module (AhLapCBM3); test: printed mammalian glycan array (CFG v5.[…]), GFP fluorescence; design: gene AHA_3491; GFP-tagged AhLapCBM3 (Asn3455 to Gly3940)

C[C@@H]1OC(O)[C@@H](O)[C@H](O)[C@@H]1O (stereo partly drawn) [L-fucose]
Kd [1]: ~386 µM

CC(=O)N[C@@H]1[C@@H](O[C@@H]2O[C@H](CO)[C@H](O)[C@H](O)[C@H]2O[C@@H]2O[C@@H](C)[C@@H](O)[C@@H](O)[C@@H]2O)[C@H](O[C@@H]2O[C@@H](C)[C@@H](O)[C@@H](O)[C@@H]2O)[C@@H](CO)O[C@H]1O [Lewis B antigen]
Kd [2]: 20.8 µM

CC(=O)N[C@H]1C(O)O[C@H](CO)[C@@H](O[C@@H]2O[C@H](CO)[C@H](O)[C@H](O)[C@H]2O[C@@H]2O[C@@H](C)[C@@H](O)[C@@H](O)[C@@H]2O)[C@@H]1O[C@@H]1O[C@@H](C)[C@@H](O)[C@@H](O)[C@@H]1O (mixture of isomers) [Lewis Y antigen]
printed mammalian glycan array (CFG v5.4), GFP fluorescence [3]: Strong binding was observed to the Lewis B and Lewis Y antigens
